# Data as given in paper PMC10412597, “Small molecule branched-chain ketoacid dehydrogenase kinase (BDK) inhibitors with opposing effects on BDK protein levels” (Nature Communications, 2023).
# Tests used:
# Set-up in all cases: Invitrogen kinase panel, per cent inhibition of kinase activity
# PI4KA = PI4KA (Homo sapiens, UniProt P42356); conditions: inhibitor
# Experimental: (§1) To discover a potent and selective BDK inhibitor, a subset of the Pfizer compound collection was screened. […] Off target activity was assessed in both CEREP and kinase panels (Supplementary Tables 2, 3).
# JAK3 = molecular target: T1, JAK3 (Homo sapiens, UniProt P52333); conditions: 10 µM, inhibitor
# T1 sequence (P52333 1-1124): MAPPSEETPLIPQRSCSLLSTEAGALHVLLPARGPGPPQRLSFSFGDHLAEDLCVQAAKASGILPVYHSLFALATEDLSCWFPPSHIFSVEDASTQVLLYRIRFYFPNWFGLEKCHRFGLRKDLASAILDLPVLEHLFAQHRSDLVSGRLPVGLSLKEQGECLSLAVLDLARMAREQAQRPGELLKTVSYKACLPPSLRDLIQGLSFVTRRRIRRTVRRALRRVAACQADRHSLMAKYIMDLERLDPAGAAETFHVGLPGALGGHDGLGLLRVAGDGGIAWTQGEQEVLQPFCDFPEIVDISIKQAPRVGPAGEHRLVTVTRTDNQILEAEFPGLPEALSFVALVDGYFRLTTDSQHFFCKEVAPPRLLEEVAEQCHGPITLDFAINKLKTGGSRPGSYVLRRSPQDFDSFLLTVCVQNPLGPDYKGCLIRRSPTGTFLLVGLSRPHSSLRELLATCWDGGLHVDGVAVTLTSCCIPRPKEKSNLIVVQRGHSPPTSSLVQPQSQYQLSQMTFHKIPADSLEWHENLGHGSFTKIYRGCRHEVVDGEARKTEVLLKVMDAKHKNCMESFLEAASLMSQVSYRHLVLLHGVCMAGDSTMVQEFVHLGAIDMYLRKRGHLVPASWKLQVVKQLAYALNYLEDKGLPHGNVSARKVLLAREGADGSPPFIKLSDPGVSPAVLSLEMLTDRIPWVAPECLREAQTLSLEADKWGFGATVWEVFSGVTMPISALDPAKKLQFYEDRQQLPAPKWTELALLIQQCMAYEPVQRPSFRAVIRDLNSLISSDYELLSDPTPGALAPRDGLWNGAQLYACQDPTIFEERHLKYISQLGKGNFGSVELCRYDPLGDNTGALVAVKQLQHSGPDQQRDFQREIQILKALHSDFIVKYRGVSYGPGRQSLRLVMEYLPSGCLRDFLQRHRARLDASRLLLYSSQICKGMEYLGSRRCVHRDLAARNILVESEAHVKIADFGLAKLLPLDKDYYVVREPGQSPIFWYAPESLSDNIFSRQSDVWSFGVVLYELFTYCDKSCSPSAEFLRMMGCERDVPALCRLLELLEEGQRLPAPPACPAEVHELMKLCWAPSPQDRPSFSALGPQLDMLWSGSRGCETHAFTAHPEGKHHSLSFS
# Experimental: as §1
# BTK = BTK (Homo sapiens, UniProt Q06187); conditions: 10 µM, inhibitor
# Experimental: as §1
# [1] = molecular target: T2, Epidermal Growth Factor Receptor (Homo sapiens, UniProt P00533); conditions: 10 µM, inhibitor
# T2 construct: gene EGFR
# T2 sequence (P00533 whole entry): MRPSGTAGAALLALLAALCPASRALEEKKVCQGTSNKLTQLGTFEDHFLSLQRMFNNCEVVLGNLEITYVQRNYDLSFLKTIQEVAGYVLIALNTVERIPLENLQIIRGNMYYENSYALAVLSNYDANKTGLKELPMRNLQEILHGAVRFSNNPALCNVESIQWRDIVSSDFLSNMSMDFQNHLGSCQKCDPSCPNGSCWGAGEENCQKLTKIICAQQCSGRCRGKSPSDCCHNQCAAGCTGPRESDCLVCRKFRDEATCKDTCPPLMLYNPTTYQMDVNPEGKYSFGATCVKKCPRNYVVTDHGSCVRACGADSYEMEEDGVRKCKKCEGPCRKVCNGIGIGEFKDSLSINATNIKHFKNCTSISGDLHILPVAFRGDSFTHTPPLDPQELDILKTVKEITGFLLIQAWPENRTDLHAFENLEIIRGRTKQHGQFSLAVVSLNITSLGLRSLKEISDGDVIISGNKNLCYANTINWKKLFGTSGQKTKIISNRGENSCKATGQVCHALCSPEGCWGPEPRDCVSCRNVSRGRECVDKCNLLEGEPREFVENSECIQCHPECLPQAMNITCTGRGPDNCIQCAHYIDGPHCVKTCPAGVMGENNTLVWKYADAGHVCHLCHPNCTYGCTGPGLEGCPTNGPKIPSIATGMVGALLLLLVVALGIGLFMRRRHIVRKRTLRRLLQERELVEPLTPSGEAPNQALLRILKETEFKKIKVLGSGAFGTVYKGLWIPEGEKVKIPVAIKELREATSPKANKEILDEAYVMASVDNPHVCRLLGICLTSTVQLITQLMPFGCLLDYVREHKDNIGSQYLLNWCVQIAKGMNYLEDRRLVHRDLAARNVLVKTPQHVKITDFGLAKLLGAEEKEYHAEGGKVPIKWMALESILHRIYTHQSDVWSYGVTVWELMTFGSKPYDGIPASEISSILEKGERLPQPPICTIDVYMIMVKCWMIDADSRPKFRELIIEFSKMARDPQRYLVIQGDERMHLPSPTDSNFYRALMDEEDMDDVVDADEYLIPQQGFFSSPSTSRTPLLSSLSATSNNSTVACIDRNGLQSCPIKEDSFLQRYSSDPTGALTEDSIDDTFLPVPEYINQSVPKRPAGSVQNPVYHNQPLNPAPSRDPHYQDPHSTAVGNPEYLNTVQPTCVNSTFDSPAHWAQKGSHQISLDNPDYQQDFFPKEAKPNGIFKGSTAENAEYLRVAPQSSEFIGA
# Experimental: as §1
# MAPK12 = MAPK12 (Homo sapiens, UniProt P53778); conditions: 10 µM, inhibitor
# Method in brief: (§2)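 Activity was measured in a kinase selectivity panel. The data come from off-target testing of the same BDK inhibitors.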
# ROCK2 = ROCK2 (Homo sapiens, UniProt O75116); conditions: 10 µM, inhibitor
# Method in brief: as §2
# JNK2 = molecular target: T3, JNK2 (Homo sapiens, UniProt P45984); conditions: 10 µM, inhibitor
# T3 construct: gene MAPK9
# T3 sequence (P45984 whole entry): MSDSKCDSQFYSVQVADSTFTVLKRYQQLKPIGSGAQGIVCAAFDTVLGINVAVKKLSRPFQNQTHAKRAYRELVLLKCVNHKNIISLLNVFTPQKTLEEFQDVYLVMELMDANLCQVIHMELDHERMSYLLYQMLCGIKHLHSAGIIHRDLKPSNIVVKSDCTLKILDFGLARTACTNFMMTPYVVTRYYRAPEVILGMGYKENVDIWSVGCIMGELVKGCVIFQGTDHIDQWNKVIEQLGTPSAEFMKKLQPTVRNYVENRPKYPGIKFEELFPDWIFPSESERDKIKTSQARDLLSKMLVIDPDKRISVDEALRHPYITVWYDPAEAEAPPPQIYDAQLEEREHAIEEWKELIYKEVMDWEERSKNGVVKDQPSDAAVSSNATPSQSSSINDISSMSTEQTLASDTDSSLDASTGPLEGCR
# Experimental: as §1
# ROCK1 = ROCK1 (Homo sapiens, UniProt Q13464); conditions: 10 µM, inhibitor
# Chain of ROCK1 (Q13464 whole entry): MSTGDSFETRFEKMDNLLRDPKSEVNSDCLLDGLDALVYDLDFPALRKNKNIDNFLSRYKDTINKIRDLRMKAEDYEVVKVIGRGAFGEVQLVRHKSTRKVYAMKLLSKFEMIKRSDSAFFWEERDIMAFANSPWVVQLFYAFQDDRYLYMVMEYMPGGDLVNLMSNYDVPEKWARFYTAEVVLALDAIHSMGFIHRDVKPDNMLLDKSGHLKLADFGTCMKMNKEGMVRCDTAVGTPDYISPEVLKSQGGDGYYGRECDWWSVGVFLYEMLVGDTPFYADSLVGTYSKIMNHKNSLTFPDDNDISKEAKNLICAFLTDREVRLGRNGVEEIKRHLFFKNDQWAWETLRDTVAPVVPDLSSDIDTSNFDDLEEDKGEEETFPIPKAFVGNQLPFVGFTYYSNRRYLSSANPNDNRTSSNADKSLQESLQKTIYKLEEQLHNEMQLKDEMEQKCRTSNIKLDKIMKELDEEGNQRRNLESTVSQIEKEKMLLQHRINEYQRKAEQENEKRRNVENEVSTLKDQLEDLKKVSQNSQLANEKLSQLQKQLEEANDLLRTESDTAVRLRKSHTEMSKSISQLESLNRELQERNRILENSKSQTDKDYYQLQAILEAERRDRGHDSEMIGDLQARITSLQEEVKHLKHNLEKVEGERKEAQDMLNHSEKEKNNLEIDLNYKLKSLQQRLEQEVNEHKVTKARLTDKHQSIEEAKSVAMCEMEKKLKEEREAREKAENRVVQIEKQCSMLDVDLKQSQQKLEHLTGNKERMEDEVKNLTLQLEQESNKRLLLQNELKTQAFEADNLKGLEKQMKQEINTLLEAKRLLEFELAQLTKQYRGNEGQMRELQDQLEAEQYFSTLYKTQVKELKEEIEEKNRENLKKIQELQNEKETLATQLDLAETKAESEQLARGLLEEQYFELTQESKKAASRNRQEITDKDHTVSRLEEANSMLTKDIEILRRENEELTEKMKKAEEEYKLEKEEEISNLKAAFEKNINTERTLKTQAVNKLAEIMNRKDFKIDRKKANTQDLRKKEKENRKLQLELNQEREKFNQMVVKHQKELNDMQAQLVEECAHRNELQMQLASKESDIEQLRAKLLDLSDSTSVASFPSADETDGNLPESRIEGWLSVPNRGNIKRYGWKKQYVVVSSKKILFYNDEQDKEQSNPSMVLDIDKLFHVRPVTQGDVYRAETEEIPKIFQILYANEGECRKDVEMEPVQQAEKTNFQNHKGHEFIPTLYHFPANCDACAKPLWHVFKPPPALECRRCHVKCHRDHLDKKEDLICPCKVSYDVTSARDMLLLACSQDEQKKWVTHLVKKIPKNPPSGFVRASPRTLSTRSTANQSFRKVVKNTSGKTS
# Experimental: as §1
# MARK3 = MARK3 (Homo sapiens, UniProt P27448); conditions: 10 µM, inhibitor
# Method in brief: as §2
# PLK1 = PLK1 (Homo sapiens, UniProt P53350); conditions: 10 µM, inhibitor
# Method in brief: as §2
# PAK4 = PAK4 (Homo sapiens, UniProt O96013); conditions: 10 µM, inhibitor
# Chain of PAK4 (O96013 whole entry): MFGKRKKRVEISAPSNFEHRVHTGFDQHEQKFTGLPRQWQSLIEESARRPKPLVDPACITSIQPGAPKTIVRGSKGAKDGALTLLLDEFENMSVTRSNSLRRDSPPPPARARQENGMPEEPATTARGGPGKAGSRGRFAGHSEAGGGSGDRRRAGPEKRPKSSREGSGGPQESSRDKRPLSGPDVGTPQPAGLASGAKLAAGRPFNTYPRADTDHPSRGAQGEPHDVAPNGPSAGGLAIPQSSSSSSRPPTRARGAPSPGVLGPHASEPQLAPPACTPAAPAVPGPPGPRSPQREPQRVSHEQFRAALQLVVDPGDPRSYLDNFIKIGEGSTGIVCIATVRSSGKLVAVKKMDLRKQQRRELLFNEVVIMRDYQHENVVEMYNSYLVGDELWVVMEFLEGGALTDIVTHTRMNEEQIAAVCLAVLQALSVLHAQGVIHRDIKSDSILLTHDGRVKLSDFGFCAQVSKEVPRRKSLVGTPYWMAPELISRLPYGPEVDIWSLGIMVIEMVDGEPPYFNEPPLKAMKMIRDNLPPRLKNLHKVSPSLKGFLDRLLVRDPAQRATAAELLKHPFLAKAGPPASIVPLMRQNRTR
# Experimental: as §1
# Rsk2 = molecular target: T4, Rsk2 (Homo sapiens, UniProt P51812); conditions: 10 µM, inhibitor
# T4 construct: gene RPS6KA3
# Method in brief: as §2
# EPHA2 = EPHA2 (Homo sapiens, UniProt P29317); conditions: 10 µM, inhibitor
# Experimental: as §1
# AKT2 = AKT2 (Homo sapiens, UniProt P31751); conditions: 10 µM, inhibitor
# Method in brief: as §2
# KDR = KDR (Homo sapiens, UniProt P35968); conditions: 10 µM, inhibitor
# Chain of KDR (P35968 whole entry): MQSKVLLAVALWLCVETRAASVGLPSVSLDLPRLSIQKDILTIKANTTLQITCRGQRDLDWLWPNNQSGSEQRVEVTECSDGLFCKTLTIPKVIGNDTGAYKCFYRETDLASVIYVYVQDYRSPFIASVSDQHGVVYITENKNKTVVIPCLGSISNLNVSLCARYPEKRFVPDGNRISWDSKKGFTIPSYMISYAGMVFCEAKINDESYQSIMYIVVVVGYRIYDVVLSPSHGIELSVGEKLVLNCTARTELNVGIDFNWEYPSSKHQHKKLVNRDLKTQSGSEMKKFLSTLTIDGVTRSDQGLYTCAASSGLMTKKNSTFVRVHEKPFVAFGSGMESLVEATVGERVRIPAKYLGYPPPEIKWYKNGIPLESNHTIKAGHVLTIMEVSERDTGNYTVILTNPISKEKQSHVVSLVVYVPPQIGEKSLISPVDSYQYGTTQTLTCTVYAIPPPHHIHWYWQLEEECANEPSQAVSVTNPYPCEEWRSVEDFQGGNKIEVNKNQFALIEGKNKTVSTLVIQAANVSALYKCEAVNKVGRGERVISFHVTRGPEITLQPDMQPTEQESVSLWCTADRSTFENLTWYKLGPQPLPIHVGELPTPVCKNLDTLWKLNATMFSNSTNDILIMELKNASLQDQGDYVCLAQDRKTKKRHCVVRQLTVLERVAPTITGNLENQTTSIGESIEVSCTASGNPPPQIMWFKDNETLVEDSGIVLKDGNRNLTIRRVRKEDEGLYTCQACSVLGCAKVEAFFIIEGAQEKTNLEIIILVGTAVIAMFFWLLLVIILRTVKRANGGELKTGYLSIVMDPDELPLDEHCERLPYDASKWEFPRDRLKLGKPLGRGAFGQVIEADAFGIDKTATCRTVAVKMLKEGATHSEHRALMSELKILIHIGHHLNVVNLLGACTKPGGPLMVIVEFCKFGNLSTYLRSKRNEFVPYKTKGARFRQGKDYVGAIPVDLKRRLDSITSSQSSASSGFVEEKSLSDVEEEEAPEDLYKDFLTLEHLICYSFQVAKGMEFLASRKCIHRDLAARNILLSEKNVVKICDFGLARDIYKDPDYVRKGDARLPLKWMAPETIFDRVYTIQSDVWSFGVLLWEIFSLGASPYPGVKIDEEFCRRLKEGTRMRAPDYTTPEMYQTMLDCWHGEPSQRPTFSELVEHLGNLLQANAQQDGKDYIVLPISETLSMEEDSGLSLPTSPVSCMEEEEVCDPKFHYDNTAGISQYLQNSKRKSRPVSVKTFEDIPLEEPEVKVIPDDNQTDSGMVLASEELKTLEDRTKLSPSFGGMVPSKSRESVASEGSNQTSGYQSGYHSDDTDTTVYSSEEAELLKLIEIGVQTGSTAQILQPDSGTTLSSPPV
# Experimental: as §1
compound,measurement,setting,value
"O=C(O)c1sc2cc(F)sc2c1Cl [PF-07208254, 3-chloro-5-fluorothieno[3,2-b]thiophene-2-carboxylic acid]",ATP = 10 uM % Inhibition PF-07208254,PI4KA,8.2%
same,ATP = 1 mM % Inhibition PF-07208254,JAK3,-4.1%
same,ATP = Km % Inhibition PF-07208254,JAK3,0.9%
same,ATP = 1 mM % Inhibition PF-07208254,BTK,0.8%
same,ATP = Km % Inhibition PF-07208254,BTK,5.9%
same,ATP = 1 mM % Inhibition PF-07208254,[1],-7.2%
same,ATP = Km % Inhibition PF-07208254,[1],-0.9%
same,ATP = Km % Inhibition PF-07208254,MAPK12,13.3%
same,ATP = Km % Inhibition PF-07208254,ROCK2,-5.8%
same,ATP = 100 uM % Inhibition PF-07208254,JNK2,-3.0%
same,ATP = 1 mM % Inhibition PF-07208254,ROCK1,0.8%
same,ATP = Km % Inhibition PF-07208254,ROCK1,3.6%
same,ATP = Km % Inhibition PF-07208254,MARK3,5.0%
same,ATP = Km % Inhibition PF-07208254,PLK1,1.8%
same,ATP = 1 mM % Inhibition PF-07208254,PAK4,0.9%
same,ATP = Km % Inhibition PF-07208254,PAK4,6.0%
same,ATP = Km % Inhibition PF-07208254,Rsk2,-0.7%
same,ATP = 1 mM % Inhibition PF-07208254,EPHA2,-5.6%
same,ATP = Km % Inhibition PF-07208254,EPHA2,0.5%
same,ATP = Km % Inhibition PF-07208254,AKT2,0.2%
same,ATP = 1 mM % Inhibition PF-07208254,KDR,5.6%
same,ATP = Km % Inhibition PF-07208254,KDR,1.1%
"CCC1(COc2ccc(-c3csc(-c4ccccc4C(=O)O)n3)cn2)CC1 [PF-07247685, 2-(4-{6-[(1-ethylcyclopropyl)methoxy]pyridin-3-yl}-1,3-thiazol-2-yl)benzoic acid]",ATP = 10 uM % Inhibition PF-07247685,PI4KA,-3.1%
same,ATP = 1 mM % Inhibition PF-07247685,JAK3,-0.0%
same,ATP = Km % Inhibition PF-07247685,JAK3,0.8%
same,ATP = 1 mM % Inhibition PF-07247685,BTK,3.1%
same,ATP = Km % Inhibition PF-07247685,BTK,-0.7%
same,ATP = 1 mM % Inhibition PF-07247685,[1],1.2%
same,ATP = Km % Inhibition PF-07247685,[1],-2.6%
same,ATP = Km % Inhibition PF-07247685,MAPK12,4.6%
same,ATP = Km % Inhibition PF-07247685,ROCK2,5.5%
same,ATP = 100 uM % Inhibition PF-07247685,JNK2,4.3%
same,ATP = 1 mM % Inhibition PF-07247685,ROCK1,-0.9%
same,ATP = Km % Inhibition PF-07247685,ROCK1,2.4%
same,ATP = Km % Inhibition PF-07247685,MARK3,2.1%
same,ATP = Km % Inhibition PF-07247685,PLK1,10.1%
same,ATP = 1 mM % Inhibition PF-07247685,PAK4,3.7%
same,ATP = Km % Inhibition PF-07247685,PAK4,8.3%
same,ATP = Km % Inhibition PF-07247685,Rsk2,-1.6%
same,ATP = 1 mM % Inhibition PF-07247685,EPHA2,5.6%
same,ATP = Km % Inhibition PF-07247685,EPHA2,0.6%
same,ATP = Km % Inhibition PF-07247685,AKT2,5.5%
same,ATP = 1 mM % Inhibition PF-07247685,KDR,0.1%
same,ATP = Km % Inhibition PF-07247685,KDR,2.0%
